In US8735387B2, “Oxazolopyrimidines as Edg-1 receptor agonists” (Sanofi, priority 2008, dated 2014):

Each compound was assayed against T1, human Edg-1 receptor (Homo sapiens, UniProt P21453) (assay: GTP-γ-S assay using human Edg-1 receptors (scintillation proximity assay, membrane preparation from CHO Flp-In cell line)). Settings: example compound at 10 μM; relative to 10 μM S1P; GTP-γ-S SPA, human Edg-1 membranes.
T1 construct: expressed in transfected cells; membrane preparation
Assay type: biochemical
Method in brief: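 Membranes came from Flp-In CHO cells constitutively expressing human Edg-1 carrying an N-terminal FLAG tag. Compound-induced receptor activation was read as GTP-γ-S binding in a scintillation proximity format.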

T1 sequence (P21453 whole entry): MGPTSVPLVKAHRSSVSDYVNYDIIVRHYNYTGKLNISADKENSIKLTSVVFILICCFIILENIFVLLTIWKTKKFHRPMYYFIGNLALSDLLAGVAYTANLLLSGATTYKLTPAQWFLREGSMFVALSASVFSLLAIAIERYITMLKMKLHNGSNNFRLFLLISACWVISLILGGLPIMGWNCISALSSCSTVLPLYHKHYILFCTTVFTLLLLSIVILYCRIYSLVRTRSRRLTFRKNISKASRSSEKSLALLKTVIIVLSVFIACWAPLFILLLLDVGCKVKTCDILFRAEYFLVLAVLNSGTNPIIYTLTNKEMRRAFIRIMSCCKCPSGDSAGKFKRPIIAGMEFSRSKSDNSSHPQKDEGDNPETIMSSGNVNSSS

| Structure (SMILES) | % Activation (Edg-1 receptor activation in percent of the activation by 10 μM S1P) [%] |
| --- | --- |
| CCOc1nc(Cc2ccc(Cl)cc2)nc2oc(-c3cccc(OCC(=O)O)c3)nc12 [Example 310] | 87 |
| CCOc1nc(Cc2ccc(Cl)cc2)nc2oc(-c3cc(C)c(OCC(=O)N4CCC[C@H]4C(=O)O)c(C)c3)nc12 [Example 311] | 78 |
| CCCOc1nc(Cc2ccc(Cl)cc2)nc2oc(-c3cc(C)c(OCC(O)CNC4CCN(C)CC4)c(C)c3)nc12 (centres unmarked) [Example 313] | 143 |
| CCOc1nc(Cc2ccc(Cl)cc2)nc2oc(-c3cc(C)c(OCC(=O)NCCC(=O)O)c(C)c3)nc12 [Example 314] | 96 |
| CCCOc1nc(Cc2ccc(Cl)cc2)nc2oc(-c3cc(C)c(OCC4CC4)c(C)c3)nc12 [Example 315] | 79 |
| CCCOc1nc(Cc2ccc(Cl)cc2)nc2oc(-c3cc(C)c(OCC(=O)CC)c(C)c3)nc12 [Example 316] | 70 |
| CCCOc1nc(Cc2ccccc2)nc2oc(-c3cccc(OC)c3)nc12 [Example 317] | 105 |
| CCOc1nc(Cc2ccc(Cl)cc2)nc2oc(-c3cc(C)c(OCC(=O)N4CC[C@@H]5C[C@@]54C(=O)O)c(C)c3)nc12 [Example 318] | 101 |
